Measurements as given in patent US11872262B2, “Means and methods for treating bacterial infections” (VIB VZW, priority 2017, dated 2024).
Residues, ends and D or L forms follow the SMILES beside them.

What follows are compounds tested on E. coli O157:H7. Settings: screening-stage peptides tested at 1, 6, 12 and 25 μg/mL.
Type: cell-based, Escherichia coli
From the text: In the present invention we used the statistical thermodynamics algorithm TANGO to identify aggregation prone regions (APR) in the proteome of E. coli strain O157:H7. This yielded 3535 sequences of at least 6 amino acids in length and a TANGO score of at least 20%. In order to generate efficient aggregation seeds, we employed a previously devised tandem repeat design ^19, 21, in which the APRs are repeated once and separated by a linker. Given the length limitation on solid phase peptide synthesis with regard to yield and purity, we focused on the 1542 APRs with a length of 7 amino acids. In order to maximize the potential of these peptides to induce aggregation in E. coli, we ranked the APRs by their frequency of occurrence throughout the E. coli proteome, allowing a single amino acid mismatch, and selected the first 75 most frequently occurring sequences from this list (Table 4). In the design pattern, and in order to increase the colloidal stability of these aggregating peptides, the APRs are flanked by aggregation gatekeepers, a class of residues that was previously shown to reduce aggregation kinetics^22-24. […] To generate the tandem we used a single proline residue as a linker between the gatekeeper-flanked APRs. In addition to the 75 peptides generated in this fashion, we added 2 variants of each of the first 25 peptides in the list by randomly mutating one residue in the first APR repeat to arginine to further modulate the aggregation propensity of the peptides (Table 4). All the peptides were generated using solid phase synthesis at 200 nmole scale and dissolved in DMSO to a theoretical stock concentration of 2 mM (assuming 100% synthesis efficiency). Peptide activity on the growth of E. coli O157:H7 was measured at dilutions of the peptide corresponding to concentrations of 1, 6, 12 and 25 μg/mL. […] The Matthews Correlations Coefficient (MCC) with the measured activity was 0.1 at 12 μg/mL and 0.24 at 25 μg/mL.
For `CC(C)C[C@H](NC(=O)[C@H](C)NC(=O)[C@H](CC(C)C)NC(=O)[C@H](CC(C)C)NC(=O)[C@H](CC(C)C)NC(=O)[C@H](CCCNC(=N)N)NC(=O)[C@@H]1CCCN1C(=O)[C@H](CCCNC(=N)N)NC(=O)[C@H](CCCNC(=N)N)NC(=O)[C@H](CO)NC(=O)[C@H](CC(C)C)NC(=O)[C@H](CC(C)C)NC(=O)[C@H](C)NC(=O)[C@H](CC(C)C)NC(=O)[C@H](CC(C)C)NC(=O)[C@H](CC(C)C)NC(=O)[C@@H](N)CCCNC(=N)N)C(=O)N[C@@H](CC(C)C)C(=O)N[C@@H](CO)C(=O)N[C@@H](CCCNC(=N)N)C(=O)N[C@@H](CCCNC(=N)N)C(=O)O` [Peptide P3] (H-RLLLALLSRRPRLLLALLSRR-OH; N-terminus and C-terminus assumed), the “E. coli O157 (apparent MIC in screen)” value was 12 µg/mL.
With `CC(C)C[C@H](NC(=O)[C@H](C)NC(=O)[C@H](CC(C)C)NC(=O)[C@H](CCCNC(=N)N)NC(=O)[C@@H]1CCCN1C(=O)[C@H](CCCNC(=N)N)NC(=O)[C@H](CCCNC(=N)N)NC(=O)[C@H](CC(C)C)NC(=O)[C@H](CC(C)C)NC(=O)[C@H](CC(C)C)NC(=O)[C@H](C)NC(=O)[C@H](CC(C)C)NC(=O)[C@H](C)NC(=O)[C@H](CC(C)C)NC(=O)[C@@H](N)CCCNC(=N)N)C(=O)N[C@@H](C)C(=O)N[C@@H](CC(C)C)C(=O)N[C@@H](CC(C)C)C(=O)N[C@@H](CC(C)C)C(=O)N[C@@H](CCCNC(=N)N)C(=O)N[C@@H](CCCNC(=N)N)C(=O)O` [Peptide P4] (H-RLALALLLRRPRLALALLLRR-OH; N-terminus and C-terminus assumed) the “E. coli O157 (apparent MIC in screen)” value was 6 µg/mL.
In the case of `CC(C)C[C@H](NC(=O)[C@H](C)NC(=O)[C@H](CCCNC(=N)N)NC(=O)[C@@H]1CCCN1C(=O)[C@H](CCCNC(=N)N)NC(=O)[C@H](CCCNC(=N)N)NC(=O)[C@H](CC(C)C)NC(=O)[C@H](CC(C)C)NC(=O)[C@@H](NC(=O)[C@@H](NC(=O)[C@H](CC(C)C)NC(=O)[C@H](CC(C)C)NC(=O)[C@H](C)NC(=O)[C@@H](N)CCCNC(=N)N)[C@@H](C)O)[C@@H](C)O)C(=O)N[C@@H](CC(C)C)C(=O)N[C@H](C(=O)N[C@H](C(=O)N[C@@H](CC(C)C)C(=O)N[C@@H](CC(C)C)C(=O)N[C@@H](CCCNC(=N)N)C(=O)N[C@@H](CCCNC(=N)N)C(=O)O)[C@@H](C)O)[C@@H](C)O` [Peptide P5] (H-RALLTTLLRRPRALLTTLLRR-OH; N-terminus and C-terminus assumed), the “E. coli O157 (apparent MIC in screen)” value is reported as 12 µg/mL.
`CC(C)C[C@H](NC(=O)[C@H](C)NC(=O)[C@H](CCCNC(=N)N)NC(=O)[C@@H]1CCCN1C(=O)[C@H](CCCNC(=N)N)NC(=O)[C@H](CCCNC(=N)N)NC(=O)[C@H](CC(C)C)NC(=O)[C@H](CC(C)C)NC(=O)[C@H](C)NC(=O)[C@@H](NC(=O)[C@H](C)NC(=O)[C@H](CC(C)C)NC(=O)[C@H](C)NC(=O)[C@@H](N)CCCNC(=N)N)C(C)C)C(=O)N[C@@H](C)C(=O)N[C@H](C(=O)N[C@@H](C)C(=O)N[C@@H](CC(C)C)C(=O)N[C@@H](CC(C)C)C(=O)N[C@@H](CCCNC(=N)N)C(=O)N[C@@H](CCCNC(=N)N)C(=O)O)C(C)C` [Peptide P12] (H-RALAVALLRRPRALAVALLRR-OH; N-terminus and C-terminus assumed) was tested, and the “E. coli O157 (apparent MIC in screen)” value was 25 µg/mL.
`CC(C)C[C@H](NC(=O)CNC(=O)[C@H](CCCNC(=N)N)NC(=O)[C@@H]1CCCN1C(=O)[C@H](CCCNC(=N)N)NC(=O)[C@H](CCCNC(=N)N)NC(=O)[C@H](C)NC(=O)[C@H](CC(C)C)NC(=O)[C@H](CC(C)C)NC(=O)[C@H](C)NC(=O)[C@H](CC(C)C)NC(=O)[C@H](CC(C)C)NC(=O)CNC(=O)[C@@H](N)CCCNC(=N)N)C(=O)N[C@@H](CC(C)C)C(=O)N[C@@H](C)C(=O)N[C@@H](CC(C)C)C(=O)N[C@@H](CC(C)C)C(=O)N[C@@H](C)C(=O)N[C@@H](CCCNC(=N)N)C(=O)N[C@@H](CCCNC(=N)N)C(=O)O` [Peptide P14] (H-RGLLALLARRPRGLLALLARR-OH; N-terminus and C-terminus assumed) was tested, and the “E. coli O157 (apparent MIC in screen)” value was 12 µg/mL.
In the case of `CC(C)C[C@H](NC(=O)[C@H](C)NC(=O)[C@H](CCCNC(=N)N)NC(=O)[C@@H]1CCCN1C(=O)[C@H](CCCNC(=N)N)NC(=O)[C@H](CCCNC(=N)N)NC(=O)[C@H](CC(C)C)NC(=O)[C@@H](NC(=O)[C@H](C)NC(=O)[C@@H](NC(=O)[C@H](CC(C)C)NC(=O)[C@H](CC(C)C)NC(=O)[C@H](C)NC(=O)[C@@H](N)CCCNC(=N)N)[C@@H](C)O)C(C)C)C(=O)N[C@@H](CC(C)C)C(=O)N[C@H](C(=O)N[C@@H](C)C(=O)N[C@H](C(=O)N[C@@H](CC(C)C)C(=O)N[C@@H](CCCNC(=N)N)C(=O)N[C@@H](CCCNC(=N)N)C(=O)O)C(C)C)[C@@H](C)O` [Peptide P16] (H-RALLTAVLRRPRALLTAVLRR-OH; N-terminus and C-terminus assumed), the “E. coli O157 (apparent MIC in screen)” value is reported as 25 µg/mL.
`CC(C)C[C@H](NC(=O)[C@H](C)NC(=O)[C@H](CC(C)C)NC(=O)[C@@H](NC(=O)[C@H](C)NC(=O)[C@H](CO)NC(=O)[C@H](CCCNC(=N)N)NC(=O)[C@@H]1CCCN1C(=O)[C@H](CCCNC(=N)N)NC(=O)[C@H](CCCNC(=N)N)NC(=O)[C@H](CC(C)C)NC(=O)[C@H](CC(C)C)NC(=O)[C@H](C)NC(=O)[C@H](CC(C)C)NC(=O)[C@@H](NC(=O)[C@H](C)NC(=O)[C@H](CO)NC(=O)[C@@H](N)CCCNC(=N)N)C(C)C)C(C)C)C(=O)N[C@@H](CC(C)C)C(=O)N[C@@H](CCCNC(=N)N)C(=O)N[C@@H](CCCNC(=N)N)C(=O)O` [Peptide P18] (H-RSAVLALLRRPRSAVLALLRR-OH; N-terminus and C-terminus assumed) was tested, and the “E. coli O157 (apparent MIC in screen)” value was 12 µg/mL.
`CC[C@H](C)[C@H](NC(=O)[C@H](CC(C)C)NC(=O)[C@H](CC(C)C)NC(=O)[C@H](C)NC(=O)[C@H](CCCNC(=N)N)NC(=O)[C@@H]1CCCN1C(=O)[C@H](CCCNC(=N)N)NC(=O)[C@H](CCCNC(=N)N)NC(=O)[C@H](CC(C)C)NC(=O)[C@H](CC(C)C)NC(=O)[C@@H](NC(=O)[C@@H](NC(=O)[C@H](CC(C)C)NC(=O)[C@H](CC(C)C)NC(=O)[C@H](C)NC(=O)[C@@H](N)CCCNC(=N)N)[C@@H](C)CC)[C@@H](C)O)C(=O)N[C@H](C(=O)N[C@@H](CC(C)C)C(=O)N[C@@H](CC(C)C)C(=O)N[C@@H](CCCNC(=N)N)C(=O)N[C@@H](CCCNC(=N)N)C(=O)O)[C@@H](C)O` [Peptide P23] (H-RALLITLLRRPRALLITLLRR-OH; N-terminus and C-terminus assumed) was tested, and the “E. coli O157 (apparent MIC in screen)” value was 25 µg/mL.
`CC(C)C[C@H](NC(=O)CNC(=O)[C@@H](NC(=O)[C@H](Cc1ccccc1)NC(=O)[C@H](CC(C)C)NC(=O)[C@H](CCCNC(=N)N)NC(=O)[C@@H]1CCCN1C(=O)[C@H](CCCNC(=N)N)NC(=O)[C@H](CCCNC(=N)N)NC(=O)[C@H](CC(C)C)NC(=O)[C@H](C)NC(=O)[C@H](CC(C)C)NC(=O)CNC(=O)[C@@H](NC(=O)[C@H](Cc1ccccc1)NC(=O)[C@H](CC(C)C)NC(=O)[C@@H](N)CCCNC(=N)N)C(C)C)C(C)C)C(=O)N[C@@H](C)C(=O)N[C@@H](CC(C)C)C(=O)N[C@@H](CCCNC(=N)N)C(=O)N[C@@H](CCCNC(=N)N)C(=O)O` [Peptide P26] (H-RLFVGLALRRPRLFVGLALRR-OH; N-terminus and C-terminus assumed) was tested, and the “E. coli O157 (apparent MIC in screen)” value was 25 µg/mL.
In the case of `CC(C)C[C@H](NC(=O)[C@H](C)NC(=O)[C@H](CC(C)C)NC(=O)[C@@H](NC(=O)[C@@H](NC(=O)[C@H](C)NC(=O)[C@H](CCCNC(=N)N)NC(=O)[C@@H]1CCCN1C(=O)[C@H](CCCNC(=N)N)NC(=O)[C@H](CCCNC(=N)N)NC(=O)[C@H](CC(C)C)NC(=O)[C@H](CC(C)C)NC(=O)[C@H](C)NC(=O)[C@H](CC(C)C)NC(=O)[C@@H](NC(=O)[C@@H](NC(=O)[C@H](C)NC(=O)[C@@H](N)CCCNC(=N)N)[C@@H](C)O)C(C)C)[C@@H](C)O)C(C)C)C(=O)N[C@@H](CC(C)C)C(=O)N[C@@H](CCCNC(=N)N)C(=O)N[C@@H](CCCNC(=N)N)C(=O)O` [Peptide P29] (H-RATVLALLRRPRATVLALLRR-OH; N-terminus and C-terminus assumed), the “E. coli O157 (apparent MIC in screen)” value is reported as 25 µg/mL.
`CC[C@H](C)[C@H](NC(=O)CNC(=O)[C@H](CC(C)C)NC(=O)[C@H](CCCNC(=N)N)NC(=O)[C@@H]1CCCN1C(=O)[C@H](CCCNC(=N)N)NC(=O)[C@H](CCCNC(=N)N)NC(=O)[C@H](CC(C)C)NC(=O)[C@H](C)NC(=O)[C@@H](NC(=O)[C@H](C)NC(=O)[C@@H](NC(=O)CNC(=O)[C@H](CC(C)C)NC(=O)[C@@H](N)CCCNC(=N)N)[C@@H](C)CC)C(C)C)C(=O)N[C@@H](C)C(=O)N[C@H](C(=O)N[C@@H](C)C(=O)N[C@@H](CC(C)C)C(=O)N[C@@H](CCCNC(=N)N)C(=O)N[C@@H](CCCNC(=N)N)C(=O)O)C(C)C` [Peptide P33] (H-RLGIAVALRRPRLGIAVALRR-OH; N-terminus and C-terminus assumed) was tested, and the “E. coli O157 (apparent MIC in screen)” value was 25 µg/mL.
